Assay results taken from patent US7705191B2, “Hydrofluoroalkyl phenols having anesthetic properties” (University of Iowa Research Foundation, priority 2006, dated 2010).

Legend:
[1] = system: rat; assay: Loss of righting reflex / anesthesia after intravenous injection in rats; format: in vivo; conditions: for onset of loss of righting reflex: two rats; for duration of anesthesia / loss of righting reflex: 10 mg/kg i.v. bolus
Experimental: For Examples 2 and 3, compounds were administered into the […] of the rat. The vehicle was 12-16% Cremophor EL dissolved in saline. The purity of each compound was approximately 96%.
Compound 1 was synthesized as described in Example 1. Approximately 15 mg/ml of the suspension were injected into the lateral tail vein of two rats (weight 300-320 g). […] The loss of righting reflex lasted for about 4 to 5 minutes. Upon awaking, the animals became active (e.g., started exploring behavior, walking, chewing, etc.).
Compound 3 (prepared as in Example 1) was formulated in Cremophor EL at a concentration of 10 mg/ml. Compound 3 was injected into the lateral tail vein of two rats at a dose of 10 mg/kg.

[2] = system: GABA receptors; assay: In vitro assay of direct activation of GABA receptors; format: cell-based; conditions: FIG. 2
Description: FIG. 2 is a graph showing the direct activation of GABA receptors by phenolic compounds.
Propofol and analogs are known to activate GABA receptors (see, e.g., Trapani et al., J. Med. Chem. 1998, 41, 1846-1854, incorporated herein by reference). While the relationship between GABA activation and anesthetic activity is not completely clear, it is believed that the ability of a compound to directly activate GABA receptors may be related to the anesthetic, sedative, and/or anxiolytic activity of the compound. Compounds of the invention can be tested in vitro electrophysiological assays to determine the ability of the compound to activate GABA receptors.
Certain compounds were tested in an in vitro assay to determine whether the compounds were capable of direct activation of GABA receptors.

[3] = lateral tail vein injection, approximately 15 mg/ml suspension

| Structure (SMILES) | response to tail pinching during loss of righting reflex [1, 3] | shaking or tremors during induction or recovery [1, 3] | onset of loss of righting reflex ([1]; lateral tail vein injection, approximately 15 mg/ml suspension, Cremophor EL/saline vehicle) | direct activation of GABA receptors [2] | duration of anesthesia / loss of righting reflex [1] | potency relative to propofol ([1]; 10 mg/kg, inferred from duration of loss of righting reflex) | onset of loss of righting reflex ([1]; lateral tail vein injection, 10 mg/kg, 10 mg/ml in Cremophor EL) |
| --- | --- | --- | --- | --- | --- | --- | --- |
| CC(C)c1cccc(CC(F)(F)F)c1O [Compound 1, 2-isopropyl-6-(2,2,2-trifluoroethyl) phenol] | did not respond to tail pinching | did not exhibit shaking or tremors | immediately lost their righting reflex | found to have activity |  |  |  |
| CC(C)c1cccc(C(C)C)c1O [Propofol, 2,6-diisopropylphenol, reference compound] |  |  |  |  | 7.5 min |  |  |
| CC(C)c1cc(C(O)C(F)(F)F)cc(C(C)C)c1O (stereo not shown) [MB003, 2,6-Diisopropyl-4-(2,2,2-trifluoro-1-hydroxy-ethyl)-phenol] |  |  |  | found to have activity |  |  |  |
| CC(C)c1cccc(C(C)C(F)(F)F)c1O (stereo not shown) [Compound 3, 2-isopropyl-6-(1-trifluoromethyl)ethyl phenol] |  |  |  | found to have activity | approximately 10 min | more potent than propofol | immediately lost their righting reflex |
